System: dextran sulfate sodium (DSS)-induced acute ulcerative colitis (UC)
Assay: 7-Day DSS-induced acute ulcerative colitis model
Assay type: in vivo, female Swiss Webster mice
[1] = 100 mg/kg IP QD, Days 0 through 6, vs IP vehicle
[2] = 200 mg/kg PO BID, Days 0 through 6, vs PO vehicle
[3] = 200 mg/kg PO BID, Days −3 through 6, vs PO vehicle

CC(C)(O)c1nc2ccccc2cc1N [Compound I-6]
Colon lengths, increase in the direction of normal [1]: 56% | Colon weight-to-length ratios, reduction in the direction of normal [1]: 35% | DAI score of occult/gross blood in stool, AUC [1]: significantly lower | DAI score of stool consistency, area under the curve (AUC) [1]: significantly lower | DAI summed scores, AUC [1]: significantly lower | full colon PMN percentages, reduction [1]: 53% | full colon edema, reduction [1]: 53% | full colon erosion, reduction [1]: 91% | full colon gland loss, reduction [1]: 82% | full colon inflammation, reduction [1]: 56% | full colon lymphoid aggregate counts, reduction [1]: 113% | full colon neutrophil scores, reduction [1]: 73% | full colon summed scores, reduction [1]: 68% | proximal colon gland loss, reduction [1]: 57% | proximal colon inflammation, reduction [1]: 32% | proximal colon lymphoid aggregate counts, reduction [1]: 107% | proximal colon summed scores, reduction [1]: 36% | Body weight loss (100 mg/kg IP QD, Days 0 through 6, vs IP vehicle (SBECD)): significantly inhibited | Body weights (200 mg/kg PO BID (Groups 5, 6, 7, 8, 9, and 10), vs PO vehicle): did not differ significantly | full colon edema, reduction [2]: 44% | proximal colon edema, reduction [2]: 48% | proximal colon inflammation, reduction [2]: 36% | full colon edema, reduction [3]: 58% | proximal colon edema, reduction [3]: 41% | proximal colon erosion, reduction [3]: 75% | DAI stool consistency scores (Day 2, 100 mg/kg IP QD, Days 0 through 6, vs IP vehicle): significantly reduced | DAI summed scores (Day 6, 100 mg/kg IP QD, Days 0 through 6, vs IP vehicle): significantly reduced | DAI occult/gross blood in stool scores (Days 4 and 6, 100 mg/kg IP QD, Days 0 through 6, vs IP vehicle): significantly reduced
